The compounds below were run against TACE (Homo sapiens (Human), UniProt P78536) (assay: TACE inhibition test (in vitro)). Details: fluorescent synthetic substrate, 37° C., 1.5 hours.
Type: biochemical
Procedure: The nucleotide sequence of TACE has been reported by Moss et al. (Moss, M. L. et al., Nature 1997, 385, 733-736). Accordingly, the cDNA of TACE was obtained according to the prescribed method from THP-1 cells or the like, and then incorporated the cDNA into an expression vector. Next, this vector was transformed into mammalian cells or insect cells, and TACE expression was obtained.
The TACE inhibition test was carried out by measuring TACE activity in the presence and the absence of the test substance using the thus-obtained TACE as an enzyme, and a fluorescent synthetic substrate Nma(N-methylanthranilic acid)-Leu-Ala-Gln-Ala-Val-Arg-Ser-Ser-Lys(Dnp(dinitrophenyl))-D-Arg-NH2 (SEQ ID NO: 1) including the TACE-cleaved sequence of a membrane-bound TNF as a substrate. The TACE inhibition test method is shown below.
Namely, 90 μL of an enzyme solution prepared with an assay buffer A (50 mM tris-hydrochloric acid buffer (pH 7.5) including 200 mM sodium chloride, 5 mM calcium chloride, 10 μM zinc sulfate, and 2 mg/mL bovine serum albumin) and 90 μL of a fluorescent synthetic substrate prepared with an assay buffer B (50 mM tris-hydrochloric acid buffer (pH 7.5) including 200 mM sodium chloride, 5 mM calcium chloride, 10 μM zinc sulfate, and 0.05% PLURONIC F-68) were mixed together, and reacted at 37° C. for 1.5 hours. Enzyme activity was then determined by measuring with a fluorescence intensity meter (Labsystems, Fluoroskan Ascent) at an excitation wavelength of 355 nm and a measurement wavelength of 460 nm.
From the enzyme activity in the presence or the absence of the test substance, the inhibition rate was determined, and the 50% inhibitiory concentration (IC50) of the test substance was calculated.

TACE, sequence (P78536 215-824): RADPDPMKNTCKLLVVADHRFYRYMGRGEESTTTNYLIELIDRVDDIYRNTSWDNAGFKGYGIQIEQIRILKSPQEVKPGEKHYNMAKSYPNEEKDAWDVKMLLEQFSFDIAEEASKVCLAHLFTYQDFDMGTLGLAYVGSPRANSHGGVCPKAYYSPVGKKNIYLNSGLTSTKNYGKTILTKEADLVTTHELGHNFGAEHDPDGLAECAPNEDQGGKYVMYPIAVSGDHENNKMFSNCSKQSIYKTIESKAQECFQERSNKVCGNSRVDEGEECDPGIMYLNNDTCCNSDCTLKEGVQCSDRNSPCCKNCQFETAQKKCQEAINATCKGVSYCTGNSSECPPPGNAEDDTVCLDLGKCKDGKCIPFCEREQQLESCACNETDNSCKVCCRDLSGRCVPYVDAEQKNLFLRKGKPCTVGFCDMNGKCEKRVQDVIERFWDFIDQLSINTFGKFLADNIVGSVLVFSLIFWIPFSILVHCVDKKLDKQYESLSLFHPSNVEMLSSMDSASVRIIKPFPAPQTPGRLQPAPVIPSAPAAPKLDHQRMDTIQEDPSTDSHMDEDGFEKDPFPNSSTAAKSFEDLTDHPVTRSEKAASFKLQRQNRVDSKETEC

IC50, 100 to 1000 nM:
CCc1cccn(CC2(c3ccc(OC)cc3)NC(=O)NC2=O)c1=O (stereo not shown) [Compound I-53, 5-[(3-ethyl-2-oxopyridin-1(2H)-yl)methyl]-5-(4-methoxyphenyl)imidazolidine-2,4-dione]
Cc1cccn(CC2(c3cccc(O)c3)NC(=O)NC2=O)c1=O (stereo not shown) [Compound I-54, 5-(3-hydroxyphenyl)-5-[(3-methyl-2-oxopyridin-1(2H)-yl)methyl]imidazolidine-2,4-dione]
COc1ccccc1C1(Cn2cccc(C)c2=O)NC(=O)NC1=O (stereo not shown) [Compound I-60]
Cc1cccn(CC2(c3ccc(F)cc3F)NC(=O)NC2=O)c1=O (stereo not shown) [Compound I-61]
Cc1cccn(CC2(c3cccc(C#CC(C)(C)C)c3)NC(=O)NC2=O)c1=O (stereo not shown) [Compound I-63]
Cc1cccn(CC2(c3ccccc3OCc3ccccc3)NC(=O)NC2=O)c1=O (stereo not shown) [Compound I-68]
COc1cc(C)c(Cl)cc1C1(Cn2cccc(C)c2=O)NC(=O)NC1=O (stereo not shown) [Compound I-70]
COc1ccc(C)cc1C1(Cn2cccc(C)c2=O)NC(=O)NC1=O (stereo not shown) [Compound I-76]

IC50, < 100 nM:
O=C1NC(=O)C(Cn2ccccc2=O)(c2ccccc2)N1 (stereo not shown) [Compound I-46, 5-[(2-oxopyridin-1(2H)-yl)methyl]-5-phenylimidazolidine-2,4-dione]
COc1ccc(C2(Cn3ccccc3=O)NC(=O)NC2=O)cc1 (stereo not shown) [Compound I-47, 5-(4-methoxyphenyl)-5-[(2-oxopyridin-1(2H)-yl)methyl]imidazolidine-2,4-dione]
O=C1NC(=O)C(Cn2cccc(F)c2=O)(c2ccc(F)cc2)N1 (stereo not shown) [Compound I-48, 5-[(3-fluoro-2-oxopyridin-1(2H)-yl)methyl]-5-(4-fluorophenyl)-imidazolidine-2,4-dione]
O=C1NC(=O)C(Cn2cccc(F)c2=O)(c2ccc(-c3ccccc3)cc2)N1 (stereo not shown) [Compound I-49, 5-([1,1′-biphenyl]-4-yl)-5-[(3-fluoro-2-oxopyridin-1(2H)-yl)methyl]imidazolidine-2,4-dione]
O=C1NC(=O)C(Cn2cccc(Cl)c2=O)(c2ccccc2)N1 (stereo not shown) [Compound I-50, 5-[(3-chloro-2-oxopyridin-1(2H)-yl)methyl]-5-phenylimidazolidine-2,4-dione]
O=C1NC(=O)C(Cn2cccc(Cl)c2=O)(c2cc3ccccc3o2)N1 (stereo not shown) [Compound I-51, 5-(benzofuran-2-yl)-5-[(3-chloro-2-oxopyridin-1(2H)-yl)methyl]imidazolidine-2,4-dione]
COc1ccc(C2(Cn3cccc(Br)c3=O)NC(=O)NC2=O)cc1 (stereo not shown) [Compound I-52, 5-[(3-bromo-2-oxopyridin-1(2H)-yl)methyl]-5-(4-methoxyphenyl)imidazolidine-2,4-dione]
Cc1cccn(CC2(c3ccncc3)NC(=O)NC2=O)c1=O (stereo not shown) [Compound I-55]
Cc1cccn(CC2(c3ccc4ccccc4c3)NC(=O)NC2=O)c1=O (stereo not shown) [Compound I-56]
Cc1cccn(CC2(c3cccc(Br)c3)NC(=O)NC2=O)c1=O (stereo not shown) [Compound I-57]
Cc1cccn(CC2(c3cccc(OCc4ccccc4)c3)NC(=O)NC2=O)c1=O (stereo not shown) [Compound I-58]
Cc1cccn(CC2(c3ccc4c(c3)OCCO4)NC(=O)NC2=O)c1=O (stereo not shown) [Compound I-59]
Cc1cccn(CC2(c3ccc4c(c3)OCO4)NC(=O)NC2=O)c1=O (stereo not shown) [Compound I-65]
Cc1cccn(CC2(c3ccc(C4CCCCC4)cc3)NC(=O)NC2=O)c1=O (stereo not shown) [Compound I-66]
Cc1cccn(CC2(c3cccc(OC(F)(F)F)c3)NC(=O)NC2=O)c1=O (stereo not shown) [Compound I-67]
COc1ccc(F)cc1C1(Cn2cccc(C)c2=O)NC(=O)NC1=O (stereo not shown) [Compound I-69]
Cc1cccn(CC2(c3cccc(C#CCN(C)C)c3)NC(=O)NC2=O)c1=O (stereo not shown) [Compound I-71]
COc1ccc(-c2ccc(C3(Cn4cccc(C)c4=O)NC(=O)NC3=O)cc2)cc1 (stereo not shown) [Compound I-72]
COc1cccc(-c2ccc(C3(Cn4cccc(C)c4=O)NC(=O)NC3=O)cc2)c1 (stereo not shown) [Compound I-73]
COc1ccccc1-c1ccc(C2(Cn3cccc(C)c3=O)NC(=O)NC2=O)cc1 (stereo not shown) [Compound I-74]
Cc1cccn(CC2(c3ccc(-c4ccc(F)cc4)cc3)NC(=O)NC2=O)c1=O (stereo not shown) [Compound I-75]
Cc1cccn(CC2(c3ccc4c(c3)CCCC4)NC(=O)NC2=O)c1=O (stereo not shown) [Compound I-77]
Cc1cccn(CC2(c3ccc(OC(F)F)cc3)NC(=O)NC2=O)c1=O (stereo not shown) [Compound I-78]
Cc1cccn(CC2(c3ccc(OC(F)(F)F)cc3)NC(=O)NC2=O)c1=O (stereo not shown) [Compound I-79]
Cc1cccc(Oc2ccc(C3(Cn4cccc(C)c4=O)NC(=O)NC3=O)cc2)c1 (stereo not shown) [Compound I-80]
COc1ccc(Oc2ccc(C3(Cn4cccc(C)c4=O)NC(=O)NC3=O)cc2)cc1 (stereo not shown) [Compound I-81]
Cc1cccn(CC2(c3ccc(Oc4ccc(Cl)cc4)cc3)NC(=O)NC2=O)c1=O (stereo not shown) [Compound I-82]
COc1cccc(Oc2ccc(C3(Cn4cccc(C)c4=O)NC(=O)NC3=O)cc2)c1 (stereo not shown) [Compound I-83]
Cc1cccn(CC2(c3ccc(Oc4ccccc4)c(F)c3)NC(=O)NC2=O)c1=O (stereo not shown) [Compound I-87]
Cc1cccn(CC2(c3ccc(OCc4ccc(F)cc4)cc3)NC(=O)NC2=O)c1=O (stereo not shown) [Compound I-88]
Cc1cccn(CC2(c3ccc(C(F)(F)F)cc3)NC(=O)NC2=O)c1=O (stereo not shown) [Compound I-89]
Cc1noc(C)c1-c1ccc(C2(Cn3cccc(C)c3=O)NC(=O)NC2=O)cc1 (stereo not shown) [Compound I-90]
COc1ccncc1-c1ccc(C2(Cn3cccc(C)c3=O)NC(=O)NC2=O)cc1 (stereo not shown) [Compound I-91]
Cc1cccn(CC2(c3ccc(-c4ccccn4)cc3)NC(=O)NC2=O)c1=O (stereo not shown) [Compound I-92]
Cc1cccn(CC2(c3cccc(-c4ccc(F)cn4)c3)NC(=O)NC2=O)c1=O (stereo not shown) [Compound I-93]
Cc1cccn(CC2(c3cccc(-c4ccccn4)c3)NC(=O)NC2=O)c1=O (stereo not shown) [Compound I-94]
Cc1cccn(CC2(c3cccc(-c4ccncc4)c3)NC(=O)NC2=O)c1=O (stereo not shown) [Compound I-95]
Cc1cccn(CC2(c3cccc(-c4ccccc4)c3)NC(=O)NC2=O)c1=O (stereo not shown) [Compound I-96]
Cc1cccn(CC2(c3ccc(Oc4ccc(F)cc4F)cc3)NC(=O)NC2=O)c1=O (stereo not shown) [Compound I-97]
Cc1cccn(CC2(c3ccc(Oc4ccc(F)c(F)c4)cc3)NC(=O)NC2=O)c1=O (stereo not shown) [Compound I-98]
Cc1cccn(CC2(c3ccc(Oc4cc(F)cc(F)c4)cc3)NC(=O)NC2=O)c1=O (stereo not shown) [Compound I-99]
Cc1cccn(CC2(c3ccc(Oc4cccc(C(F)(F)F)c4)cc3)NC(=O)NC2=O)c1=O (stereo not shown) [Compound I-100]
Cc1cccn(CC2(c3ccc(Oc4cccnc4)cc3)NC(=O)NC2=O)c1=O (stereo not shown) [Compound I-101]
Cc1cccn(CC2(c3ccc(Sc4ccccc4)c(F)c3)NC(=O)NC2=O)c1=O (stereo not shown) [Compound I-103]

— patent US10000476B2, “Pyridone derivative, pharmaceutical containing the same and methods of use thereof” (KAKEN PHARMACEUTICAL CO., LTD., priority 2011, dated 2018)
